Test results taken from PMC3401633 (Bioorganic & medicinal chemistry letters, 2011).

Target: human isoprenylcysteine carboxyl methyltransferase (hIcmt) (Homo sapiens, UniProt O60725)
Assay: vapor diffusion assay
Assay type: biochemical
Details: VDA

Chain of human isoprenylcysteine carboxyl methyltransferase (hIcmt) (O60725 whole entry, the tested form may be a part): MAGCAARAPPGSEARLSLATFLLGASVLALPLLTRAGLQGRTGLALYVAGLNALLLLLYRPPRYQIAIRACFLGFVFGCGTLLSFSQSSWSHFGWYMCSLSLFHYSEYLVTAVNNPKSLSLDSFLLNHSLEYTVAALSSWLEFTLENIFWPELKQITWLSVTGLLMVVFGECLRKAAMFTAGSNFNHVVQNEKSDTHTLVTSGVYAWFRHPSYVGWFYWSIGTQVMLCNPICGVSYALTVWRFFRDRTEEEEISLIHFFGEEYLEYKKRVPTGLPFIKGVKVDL

| hIcmt inhibition in words | SMILES |
| --- | --- |
| remarkably poor hIcmt inhibitor | COC(=O)[C@H](CSC/C=C(\C)CC/C=C(\C)CCC=C(C)C)NS(=O)(=O)c1cccs1 [Compound 10] |
| poor hIcmt inhibitors | CC(C)=CCC/C(C)=C/CC/C(C)=C/CSC[C@H](NS(=O)(=O)c1c(C)c(C)c(C)c(C)c1C)C(=O)O [Compound 6a] |
